PubChem BioAssay (NCI)
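Grown in 96-well plates, cells were treated for 48 hours with each compound at five concentrations. Insufficient inhibition: endpoint recorded as highest concentration tested. At the GI50, growth is halved. TGI: total growth inhibition.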

Assays:
Test in all cases: inhibition of tumour cell growth, NCI panel, 48 h
HOP-92 NSCLC = system: HOP-92 NSCLC
A549 NSCLC = system: A549 NSCLC
SW-620 colon = system: SW-620 colon
MDA-MB-231 breast = system: MDA-MB-231 breast
BT-549 breast = system: BT-549 breast
U251 CNS = system: U251 CNS
RPMI-8226 leukemia = system: RPMI-8226 leukemia
HCC-2998 colon = system: HCC-2998 colon
LOX IMVI melanoma = system: LOX IMVI melanoma
KM12 colon = system: KM12 colon
NCI-H460 lung = system: NCI-H460 lung
MCF7 breast = system: MCF7 breast
SR leukemia = system: SR leukemia
SNB-75 CNS = system: SNB-75 CNS
SF-295 CNS = system: SF-295 CNS
SN12C renal = system: SN12C renal
COLO 205 colon = system: COLO 205 colon
NCI-H226 lung = system: NCI-H226 lung
T-47D breast = system: T-47D breast
MDA-MB-435 = system: MDA-MB-435
SK-MEL-5 melanoma = system: SK-MEL-5 melanoma
SF-268 CNS = system: SF-268 CNS
HOP-62 NSCLC = system: HOP-62 NSCLC
RXF 393 renal = system: RXF 393 renal
786-0 renal = system: 786-0 renal
NCI/ADR-RES ovarian = system: NCI/ADR-RES ovarian
HCT-15 colon = system: HCT-15 colon
K-562 leukemia = system: K-562 leukemia
UACC-62 melanoma = system: UACC-62 melanoma
SNB-19 CNS = system: SNB-19 CNS
ACHN renal = system: ACHN renal
MOLT-4 leukemia = system: MOLT-4 leukemia
PC-3 prostate = system: PC-3 prostate
CCRF-CEM leukemia = system: CCRF-CEM leukemia
MALME-3M melanoma = system: MALME-3M melanoma
SK-MEL-28 melanoma = system: SK-MEL-28 melanoma
OVCAR-8 ovarian = system: OVCAR-8 ovarian
OVCAR-4 ovarian = system: OVCAR-4 ovarian
M14 melanoma = system: M14 melanoma
IGROV1 ovarian = system: IGROV1 ovarian
HT29 colon = system: HT29 colon
OVCAR-3 ovarian = system: OVCAR-3 ovarian
SF-539 CNS = system: SF-539 CNS
SK-OV-3 ovarian = system: SK-OV-3 ovarian
UACC-257 melanoma = system: UACC-257 melanoma
SK-MEL-2 melanoma = system: SK-MEL-2 melanoma
OVCAR-5 ovarian = system: OVCAR-5 ovarian
EKVX NSCLC = system: EKVX NSCLC
TK-10 renal = system: TK-10 renal
NCI-H23 lung = system: NCI-H23 lung
HL-60(TB) leukemia = system: HL-60(TB) leukemia
DU-145 prostate = system: DU-145 prostate
HS 578T breast = system: HS 578T breast
HCT-116 colon = system: HCT-116 colon
CAKI-1 renal = system: CAKI-1 renal
NCI-H522 lung = system: NCI-H522 lung
A498 renal = system: A498 renal
UO-31 renal = system: UO-31 renal

## Oc1c(CN2CCCC2)cc(COCc2ccccc2)c2cccnc12
HOP-92 NSCLC
  GI50: 7.15 µM
  TGI: 26.6 µM
A549 NSCLC
  GI50: 3.35 µM
  TGI: 14.1 µM
SW-620 colon
  GI50: 3.27 µM
  TGI: 18.2 µM
MDA-MB-231 breast
  GI50: 4.98 µM
  TGI: 20.1 µM
BT-549 breast
  GI50: 3.52 µM
  TGI: 18.1 µM
U251 CNS
  GI50: 2.07 µM
  TGI: 13.3 µM
RPMI-8226 leukemia
  GI50: 3.84 µM
  TGI: 19.4 µM
HCC-2998 colon
  GI50: 3.72 µM
  TGI: 16.5 µM
LOX IMVI melanoma
  GI50: 0.798 µM
  TGI: 5.61 µM
KM12 colon
  GI50: 2.14 µM
  TGI: 18.2 µM
NCI-H460 lung
  GI50: 0.774 µM
  TGI: 11.8 µM
MCF7 breast
  GI50: 2.82 µM
  TGI: 13.3 µM
SR leukemia
  GI50: 1.83 µM
  TGI: 16.9 µM
SNB-75 CNS
  GI50: 2.79 µM
  TGI: 28.6 µM
SF-295 CNS
  GI50: 2.86 µM
  TGI: 13.7 µM
SN12C renal
  GI50: 4.04 µM
  TGI: 20.8 µM
COLO 205 colon
  GI50: 10.4 µM
  TGI: 26.6 µM
NCI-H226 lung
  GI50: 2.69 µM
  TGI: 12 µM
T-47D breast
  GI50: 2.97 µM
  TGI: 15.4 µM
MDA-MB-435
  GI50: 4.43 µM
  TGI: 26.3 µM
SK-MEL-5 melanoma
  GI50: 1.12 µM
  TGI: 4.76 µM
SF-268 CNS
  GI50: 1.99 µM
  TGI: 18.5 µM
HOP-62 NSCLC
  GI50: 1.65 µM
  TGI: 9.5 µM
RXF 393 renal
  GI50: 2.11 µM
  TGI: 8.29 µM
786-0 renal
  GI50: 2.22 µM
  TGI: 8.52 µM
NCI/ADR-RES ovarian
  GI50: 0.152 µM
  TGI: 0.761 µM
HCT-15 colon
  GI50: 0.152 µM
  TGI: 2.9 µM
K-562 leukemia
  GI50: 2.62 µM
  TGI: 20.7 µM
UACC-62 melanoma
  GI50: 1.81 µM
  TGI: 7.7 µM
SNB-19 CNS
  GI50: 3.53 µM
  TGI: 92.4 µM
ACHN renal
  GI50: 0.358 µM
  TGI: 10.2 µM
MOLT-4 leukemia
  GI50: 2.96 µM
  TGI: 11.4 µM
PC-3 prostate
  GI50: 2.73 µM
  TGI: 23.3 µM
CCRF-CEM leukemia
  GI50: 1.43 µM
  TGI: 15.4 µM
MALME-3M melanoma
  GI50: 3.35 µM
  TGI: 14.4 µM
SK-MEL-28 melanoma
  GI50: 3.49 µM
  TGI: 18.6 µM
OVCAR-8 ovarian
  GI50: 2.53 µM
  TGI: 12 µM
OVCAR-4 ovarian
  GI50: 0.903 µM
  TGI: 13.6 µM
M14 melanoma
  GI50: 1.11 µM
  TGI: 10.1 µM
IGROV1 ovarian
  GI50: 3.54 µM
  TGI: 13.8 µM
HT29 colon
  GI50: 10.4 µM
  TGI: 26.5 µM
OVCAR-3 ovarian
  GI50: 2.13 µM
  TGI: 13.3 µM
SF-539 CNS
  GI50: 2.89 µM
  TGI: 10.1 µM
SK-OV-3 ovarian
  GI50: 2.02 µM
  TGI: 9.27 µM
UACC-257 melanoma
  GI50: 2.84 µM
  TGI: 8.25 µM
SK-MEL-2 melanoma
  GI50: 4.68 µM
  TGI: 20.1 µM
OVCAR-5 ovarian
  GI50: 4.1 µM
  TGI: 21.2 µM
EKVX NSCLC
  GI50: 2.01 µM
  TGI: 15.6 µM
TK-10 renal
  GI50: 1.84 µM
  TGI: 22.3 µM
NCI-H23 lung
  GI50: 2.89 µM
  TGI: 11.6 µM
HL-60(TB) leukemia
  GI50: 2.52 µM
  TGI: 8.95 µM
DU-145 prostate
  GI50: 3.4 µM
  TGI: 16.8 µM
HS 578T breast
  GI50: 8.71 µM
  TGI: 58.7 µM
HCT-116 colon
  GI50: 2.65 µM
  TGI: 11 µM
CAKI-1 renal
  GI50: 0.26 µM
  TGI: 14.2 µM
NCI-H522 lung
  GI50: 2.62 µM
  TGI: 9.97 µM
A498 renal
  GI50: 3.82 µM
  TGI: 15 µM
UO-31 renal
  GI50: 0.158 µM
  TGI: 2.55 µM

## CCSC1=CC(=O)c2ccccc2C1=O
HOP-92 NSCLC
  GI50: 1.32 µM
  TGI: 2.66 µM
A549 NSCLC
  GI50: 19.9 µM
  TGI: 41.3 µM
SW-620 colon
  GI50: 1.56 µM
  TGI: 3.42 µM
MDA-MB-231 breast
  GI50: 0.759 µM
  TGI: 3.3 µM
BT-549 breast
  GI50: 14.8 µM
  TGI: 28.3 µM
U251 CNS
  GI50: 5.81 µM
  TGI: 16.5 µM
RPMI-8226 leukemia
  GI50: 1.49 µM
  TGI: 5.65 µM
HCC-2998 colon
  GI50: 17 µM
  TGI: 31.8 µM
LOX IMVI melanoma
  GI50: 2.55 µM
  TGI: 8.89 µM
KM12 colon
  GI50: 11 µM
  TGI: 25.4 µM
NCI-H460 lung
  GI50: 20.5 µM
  TGI: 46.8 µM
MCF7 breast
  GI50: 4.12 µM
  TGI: 15.1 µM
SR leukemia
  GI50: 2.57 µM
  TGI: 6.8 µM
SNB-75 CNS
  GI50: 14.8 µM
  TGI: 29.7 µM
SF-295 CNS
  GI50: 15.3 µM
  TGI: 30.7 µM
SN12C renal
  GI50: 14.5 µM
  TGI: 28.6 µM
COLO 205 colon
  GI50: 2.33 µM
  TGI: 5.22 µM
NCI-H226 lung
  GI50: 16.8 µM
  TGI: 32.9 µM
T-47D breast
  GI50: 0.318 µM
  TGI: 0.959 µM
MDA-MB-435
  GI50: 2.69 µM
  TGI: 7.02 µM
SK-MEL-5 melanoma
  GI50: 7.11 µM
  TGI: 20.3 µM
SF-268 CNS
  GI50: 4.98 µM
  TGI: 17.1 µM
HOP-62 NSCLC
  GI50: 15.3 µM
  TGI: 28.7 µM
RXF 393 renal
  GI50: 2.09 µM
  TGI: 4.54 µM
786-0 renal
  GI50: 9.25 µM
  TGI: 22.3 µM
NCI/ADR-RES ovarian
  GI50: 2.37 µM
  TGI: 7.39 µM
HCT-15 colon
  GI50: 13.9 µM
  TGI: 31.4 µM
K-562 leukemia
  GI50: 1.61 µM
  TGI: 4.52 µM
UACC-62 melanoma
  GI50: 4.79 µM
  TGI: 17.2 µM
SNB-19 CNS
  GI50: 16.8 µM
  TGI: 40.6 µM
ACHN renal
  GI50: 1.27 µM
  TGI: 2.65 µM
MOLT-4 leukemia
  GI50: 0.744 µM
  TGI: 2.39 µM
PC-3 prostate
  GI50: 5.84 µM
  TGI: 18.5 µM
CCRF-CEM leukemia
  GI50: 0.374 µM
MALME-3M melanoma
  GI50: 1.99 µM
  TGI: 5.34 µM
SK-MEL-28 melanoma
  GI50: 14.4 µM
  TGI: 28.9 µM
OVCAR-8 ovarian
  GI50: 1.75 µM
  TGI: 3.8 µM
OVCAR-4 ovarian
  GI50: 0.959 µM
  TGI: 2.37 µM
M14 melanoma
  GI50: 12.8 µM
  TGI: 26 µM
IGROV1 ovarian
  GI50: 4.86 µM
  TGI: 17.1 µM
HT29 colon
  GI50: 15.5 µM
  TGI: 34.7 µM
OVCAR-3 ovarian
  GI50: 1.46 µM
  TGI: 2.81 µM
SF-539 CNS
  GI50: 12.7 µM
  TGI: 28.2 µM
SK-OV-3 ovarian
  GI50: 18.1 µM
  TGI: 32 µM
UACC-257 melanoma
  GI50: 1.6 µM
  TGI: 3.89 µM
SK-MEL-2 melanoma
  GI50: 6.48 µM
  TGI: 15.9 µM
OVCAR-5 ovarian
  GI50: 16.9 µM
  TGI: 32.5 µM
EKVX NSCLC
  GI50: 7.82 µM
  TGI: 23.2 µM
TK-10 renal
  GI50: 2.5 µM
  TGI: 4.65 µM
NCI-H23 lung
  GI50: 9.05 µM
  TGI: 26.6 µM
HL-60(TB) leukemia
  GI50: 0.389 µM
  TGI: 1.8 µM
DU-145 prostate
  GI50: 14.4 µM
  TGI: 27.8 µM
HS 578T breast
  GI50: 13.8 µM
  TGI: > 69.3 µM
HCT-116 colon
  GI50: 1.48 µM
  TGI: 2.84 µM
CAKI-1 renal
  GI50: 1.96 µM
  TGI: 5.5 µM
NCI-H522 lung
  GI50: 0.821 µM
  TGI: 2.39 µM
A498 renal
  GI50: 16.4 µM
  TGI: 41.2 µM
UO-31 renal
  GI50: 1.28 µM
  TGI: 4.06 µM
